Patent US8614064B2, “Methods of diagnosing atherosclerosis by measuring ApoCI” (The Johns Hopkins University, priority 2003, dated 2013)

Assays:
[1] = tested on: human aortic smooth muscles cells (ASMC); assay: Fluorescence microscope quantitative assay of apoptotic death (DAPI staining); type: cell-based; conditions: C2-ceramide 10 μmol/L + ApoCI 2.5 μg/mL + GW4869 20 μmol/L, 24 h; control 2.2%
Procedure: (§1) FIGS. 1A-1C depict the effect of apolipoproteins on apoptosis in human aortic smooth muscles cells (ASMC). ASMC were grown on sterilized glass cover slips and incubated for 24 hours with media alone (control), ApoCIII (negative control, 2.5 μg/mL medium), ApoCI (2.5 μg/mL medium), ApoCI-enriched HDL (1 μg apoA-I/mL medium), or ApoCI-poor HDL (5 μg apoA-I/mL medium) for 24 hours. Cells were then fixed with ethanol-acetic acid (3:1 volume/volume) and washed 3 times with phosphate-buffered saline. The cells were then stained with DAPI reagent, mounted on a glass cover slide, and subjected to fluorescence microscopy. FIG. 1A: The nucleus of normal cells stains blue and the nucleus of apoptotic cells stains is fragmented white. FIG. 1B: 300 to 500 cells in each sample were counted and the percent of apoptotic cells was plotted. Values are mean±SD; **P<0.01, ***P<0.001. FIG. 1C: DNA ladder assay. Confluent cultures of ASMC were incubated with control medium alone, ApoCI (2.5 μg/mL medium), ApoCIII (negative control, 2.5 μg/mL medium), and TNF-α (positive control, 20 ng/mL medium). Genomic DNA was extracted and 10 μg DNA was subjected to agarose gel electrophoresis. The gels were calibrated with commercially available DNA standards. After electrophoresis, the gels were stained with ethidium bromide and then photographed.
FIGS. 2A-2B depict the effect of ApoCI, the N-SMase inhibitor, GW4869, and C-2 ceramide on apoptosis in cultured human ASMC. FIG. 2A: ASMC (1×10^3) were seeded on sterilized glass cover slips and grown in tissue culture medium with 10% fetal calf serum for 48 hours. […] Thirty minutes later, vehicle DMSO, ApoCI (2.5 μg/mL), or C2-ceramide (10 μmol/L) were added to dishes, and the incubation continued for 24 hours. The cells were then fixed with ethanol-acetic acid (3:1 v/v), stained with DAPI reagent, assessed by fluorescent microscopy, and photographed. Top to bottom: control cells; cells incubated with ApoCI± the N-SMase inhibitor, GW4869; and cells incubated with ApoCI GW4869, and C2-ceramide. FIG. 2B: The DAPI-stained ASMC from the four experimental conditions described was analyzed for quantitative apoptosis. Mean (SD) from 4 experiments. *P<0.05.
Human AoSMC that were negative for mycoplasma, hepatitis B and C and HIV-1 were purchased from Clonetics (San Diego, Calif.) and cultured in Dulbecco's minimal essential medium (Invitrogen, Carlsbad, Calif.) with 10% fetal bovine serum (Hyclone, Salt Lake City, Utah), 100-units/ml penicillin, 100-μg/ml streptomycin to confluence. The cells were incubated in serum-free medium for 30 min prior to initiating the experiments. Cells were then washed and harvested in PBS, and centrifuged at 1500 rpm for 5 min at 4° C. Protease inhibitors were then added and the pellets stored frozen at −30° C. until use.
1×10^3 cells were grown on sterilized glass cover slips in 6-well trays and treated with ApoCI (2.5 μg/ml medium), ApoCIII (2.5 μg/ml medium), tumor necrosis factor (TNF)-α (30 ng/ml), ApoCI-enriched HDL (1 μg apoA-I/ml medium) and ApoCI-poor HDL (5 μg apoA-I/ml medium). After 24 h incubation, the medium was removed, cells fixed with ethanol:acetic acid […] and stored at 4° C. Next, the fixing solution was removed and cells stored frozen at −30° C. Cover slips were mounted on the microscope slides and stained with DAPI reagent (4,6-diamino-2-phenylindol, dihydrochloride). The stained nuclei were visualized by fluorescence microscopy (Zeiss Axiovert 25). Apoptotic cells were determined after counting—500 cells in a double blind fashion.

N-SMase = assay: Neutral sphingomyelinase assay in treated ASMC ([14C]sphingomyelin substrate); type: cell-based, human; conditions: 5 min; ApoCI 2.5 μg/mL, TNF-α 20 ng/mL, ApoCI-enriched HDL 1 μg apoA-I/mL; control 22 nmol/h per mg protein = 100%
Procedure: FIGS. 3A-3C depict the effects of ApoCI, ApoCIII, TNF-α, ApoCI-enriched HDL, and ApoCI-poor HDL on the activity of N-SMase in ASMC. Confluent cultures of ASMC were preincubated for 30 minutes with serum-free (control) medium, then ApoCI (2.5 μg/mL medium), ApoCIII (2.5 μg/mL medium), TNF-α (20 ng/mL medium) (FIG. 3A, top), or ApoCI-enriched HDL (1 μg apoAI/mL medium), or ApoCI-poor HDL (5 μg apoA-I/mL medium) (FIG. 3B, middle) were added individually to cells. The cells were then incubated and harvested at the indicated time points, and the activity was of N-SMase determined using [^14C]sphingomyelin as substrate. The N-SMase activity in control cells was 22 nmol/h per milligram cell protein, and this value was considered as 100% activity. In a separate experiment (FIG. 3C bottom), cells (0.5×10^5) were seeded in P60 Petri dishes and grown in DMEM supplemented with 10% fetal bovine serum for 5 days. After preincubation of cells for 30 minutes in serum-free medium, increasing amounts of ApoCI were added. After incubation for 10 minutes, cells were harvested, and N-SMase activity was measured.
After stimulation with ApoCI ApoCI-enriched HDL and ApoCI-poor HDL, the cells were washed with 5 ml of PBS and harvested. The pellets were stored frozen at −70° C. and resuspended in 0.5 ml of buffer (100 mM Tris-HCl pH 7.4, 0.1% Triton X-100, 1 mM EDTA and protease inhibitors). The cell suspension was sonicated 3 times (3-s bursts) using a probe sonicator and centrifuged at 500×g at 4° C. for 5 min. The supernatant was used as the enzyme source. 100 μg of protein was assayed for neutral sphingomyelinase activity in a buffer consisting of 50 mM Tris-HCl, pH 7.4, 0.1% Triton X-100, 0.1 mg of bovine serum albumin, 5 mM MgCl2 and […] of [^14C]sphingomyelin (specific activity 50 mCi/mmol, from American Radiolabled Chemicals (St. Louis, Mo.). The samples were incubated at 37° C. for 2 h and terminated with the addition of 1 ml of 10% trichloroacetic acid. The precipitate was pelleted (1000×g at 4° C. for 30 min) and 1 ml of the supernatant was extracted with 1 ml of anhydrous diethyl ether. About 0.5 ml of the aqueous phase was removed for liquid scintillation counting (Ghosh, N., and Chatterjee, S. (1998) J. Biol. Chem. 264, 12554-12561).

[2] = tested on: human aortic smooth muscles cells (ASMC); assay: DNA laddering assay; type: cell-based; conditions: ApoCI or ApoCIII 2.5 μg/mL, TNF-α positive control
Procedure: as §1
Cells were treated with either TNF-α (30 ng/ml), ApoCI or ApoCIII (2.5 μg/ml) for 6 h. The cells were then washed twice with minimal essential medium and harvested with buffer (10 mM HEPES, pH 7.4. 5 mM EDTA, 0.25 mM EGTA, 50 mM NaF, 5 mM β-mercaptoethanol, 0.35 M sucrose, 0.1% Nonidet and protease inhibitors, 1 mM phenylmethylsulfonyl fluoride, 2 μg/ml leupeptin and 5 μg/ml pepstatin), and pelleted. Genomic DNA was prepared employing standard protocol. Genomic DNA was subjected to electrophoresis, stained with ethidium bromide and the gel was photographed. The gel was calibrated using DNA fragments of known molecular weight.

Compound | percent apoptotic cells with C2-ceramide added to ApoCI and GW4869 [1] | increase in the activity of N-SMase at 5 minutes (N-SMase) | DNA laddering on agarose gel (FIG. 1C) [2]
CCCCCCCCCCCCC/C=C/[C@@H](O)[C@H](CO)NC(C)=O [C2-ceramide] | ~12.5% | – | –
tumor necrosis factor α [TNF-α] | – | ~2 fold | exhibited DNA laddering
